Measurements published in PubChem BioAssay (NCI).
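Growth conditions: 96-well plates. Treatment: test compound, 48 hours, 5 concentrations. Analysis: linear interpolation between bracketing concentrations; unreached endpoints set to highest concentration. GI50 marks 50% less growth. TGI: concentration producing complete growth inhibition.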

Columns and labels:
Assay in all cases: DTP human tumour cell line panel, 48 h
786-0 renal = tested on: 786-0 renal
A498 renal = tested on: A498 renal
A549 NSCLC = tested on: A549 NSCLC
ACHN renal = tested on: ACHN renal
BT-549 breast = tested on: BT-549 breast
CAKI-1 renal = tested on: CAKI-1 renal
CCRF-CEM leukemia = tested on: CCRF-CEM leukemia
COLO 205 colon = tested on: COLO 205 colon
DU-145 prostate = tested on: DU-145 prostate
EKVX NSCLC = tested on: EKVX NSCLC
HCC-2998 colon = tested on: HCC-2998 colon
HCT-116 colon = tested on: HCT-116 colon
HCT-15 colon = tested on: HCT-15 colon
HL-60(TB) leukemia = tested on: HL-60(TB) leukemia
HOP-62 NSCLC = tested on: HOP-62 NSCLC
HOP-92 NSCLC = tested on: HOP-92 NSCLC
HS 578T breast = tested on: HS 578T breast
HT29 colon = tested on: HT29 colon
IGROV1 ovarian = tested on: IGROV1 ovarian
K-562 leukemia = tested on: K-562 leukemia
KM12 colon = tested on: KM12 colon
LOX IMVI melanoma = tested on: LOX IMVI melanoma
M14 melanoma = tested on: M14 melanoma
MALME-3M melanoma = tested on: MALME-3M melanoma
MCF7 breast = tested on: MCF7 breast
MDA-MB-231 breast = tested on: MDA-MB-231 breast
MDA-MB-435 = tested on: MDA-MB-435
MDA-N = tested on: MDA-N
MOLT-4 leukemia = tested on: MOLT-4 leukemia
NCI-H226 lung = tested on: NCI-H226 lung
NCI-H23 lung = tested on: NCI-H23 lung
NCI-H460 lung = tested on: NCI-H460 lung
NCI-H522 lung = tested on: NCI-H522 lung
NCI/ADR-RES ovarian = tested on: NCI/ADR-RES ovarian
OVCAR-3 ovarian = tested on: OVCAR-3 ovarian
OVCAR-4 ovarian = tested on: OVCAR-4 ovarian
OVCAR-5 ovarian = tested on: OVCAR-5 ovarian
OVCAR-8 ovarian = tested on: OVCAR-8 ovarian
PC-3 prostate = tested on: PC-3 prostate
RPMI-8226 leukemia = tested on: RPMI-8226 leukemia
RXF 393 renal = tested on: RXF 393 renal
SF-268 CNS = tested on: SF-268 CNS
SF-295 CNS = tested on: SF-295 CNS
SF-539 CNS = tested on: SF-539 CNS
SK-MEL-2 melanoma = tested on: SK-MEL-2 melanoma
SK-MEL-28 melanoma = tested on: SK-MEL-28 melanoma
SK-MEL-5 melanoma = tested on: SK-MEL-5 melanoma
SK-OV-3 ovarian = tested on: SK-OV-3 ovarian
SN12C renal = tested on: SN12C renal
SNB-19 CNS = tested on: SNB-19 CNS
SNB-75 CNS = tested on: SNB-75 CNS
SR leukemia = tested on: SR leukemia
SW-620 colon = tested on: SW-620 colon
T-47D breast = tested on: T-47D breast
TK-10 renal = tested on: TK-10 renal
U251 CNS = tested on: U251 CNS
UACC-257 melanoma = tested on: UACC-257 melanoma
UACC-62 melanoma = tested on: UACC-62 melanoma
UO-31 renal = tested on: UO-31 renal

## O=C1C=CC2C3C(=O)N(c4ccccc4)C(=O)C3C1N2Cc1ccccc1 (centres undefined)
786-0 renal
  GI50: 1.69 µM
  TGI: 3.62 µM
A498 renal
  GI50: 8.57 µM
  TGI: 22.8 µM
A549 NSCLC
  GI50: 14.9 µM
  TGI: 29.7 µM
ACHN renal
  GI50: 3.36 µM
  TGI: 7.61 µM
BT-549 breast
  GI50: 3.45 µM
  TGI: 8.87 µM
CAKI-1 renal
  GI50: 4.1 µM
  TGI: 8.15 µM
CCRF-CEM leukemia
  GI50: 0.942 µM
  TGI: 4.12 µM
COLO 205 colon
  TGI: 5.37 µM
DU-145 prostate
  GI50: 9.65 µM
  TGI: 22.4 µM
EKVX NSCLC
  GI50: 7.78 µM
  TGI: 23.6 µM
HCC-2998 colon
  GI50: 7.95 µM
  TGI: 18.7 µM
HCT-116 colon
  GI50: 1.56 µM
  TGI: 3.27 µM
HCT-15 colon
  GI50: 1.74 µM
  TGI: 3.89 µM
HL-60(TB) leukemia
  GI50: 1.17 µM
  TGI: 8.79 µM
HOP-62 NSCLC
  TGI: 5.26 µM
HOP-92 NSCLC
  GI50: 3.66 µM
  TGI: 9.75 µM
HS 578T breast
  TGI: 13.9 µM
HT29 colon
  GI50: 2.07 µM
  TGI: 4.47 µM
IGROV1 ovarian
  GI50: 4.81 µM
  TGI: 12.3 µM
K-562 leukemia
  GI50: 1.67 µM
  TGI: 6.55 µM
KM12 colon
  GI50: 2.56 µM
  TGI: 7.43 µM
LOX IMVI melanoma
  GI50: 1.61 µM
  TGI: 3.13 µM
M14 melanoma
  GI50: 2.6 µM
  TGI: 7.12 µM
MALME-3M melanoma
  GI50: 4.62 µM
  TGI: 9.43 µM
MCF7 breast
  GI50: 3.19 µM
  TGI: 11.5 µM
MDA-MB-231 breast
  GI50: 5.44 µM
  TGI: 20.1 µM
MDA-MB-435
  GI50: 2.72 µM
  TGI: 8.05 µM
MDA-N
  GI50: 3.14 µM
  TGI: 10.9 µM
MOLT-4 leukemia
  GI50: 1.72 µM
  TGI: 5.42 µM
NCI-H226 lung
  TGI: 13.8 µM
NCI-H23 lung
  GI50: 5.37 µM
  TGI: > 48.3 µM
NCI-H460 lung
  GI50: 3.49 µM
  TGI: 9.01 µM
NCI-H522 lung
  GI50: 2.68 µM
  TGI: 7.64 µM
NCI/ADR-RES ovarian
  GI50: 2.55 µM
  TGI: 8.75 µM
OVCAR-3 ovarian
  GI50: 3.45 µM
  TGI: 11.3 µM
OVCAR-4 ovarian
  GI50: 5.54 µM
  TGI: 17.7 µM
OVCAR-5 ovarian
  GI50: 6.74 µM
  TGI: 19.3 µM
OVCAR-8 ovarian
  GI50: 2.88 µM
  TGI: 10.1 µM
PC-3 prostate
  GI50: 4.67 µM
  TGI: 13 µM
RPMI-8226 leukemia
  GI50: 1.59 µM
  TGI: 5.18 µM
RXF 393 renal
  GI50: 2.42 µM
  TGI: 6.53 µM
SF-268 CNS
  GI50: 3.34 µM
  TGI: 8.85 µM
SF-295 CNS
  GI50: 6.41 µM
  TGI: 15.4 µM
SF-539 CNS
  GI50: 1.66 µM
  TGI: 3.81 µM
SK-MEL-2 melanoma
  GI50: 4.37 µM
  TGI: 9.29 µM
SK-MEL-28 melanoma
  GI50: 3.02 µM
  TGI: 11.3 µM
SK-MEL-5 melanoma
  GI50: 3.57 µM
  TGI: 6.88 µM
SK-OV-3 ovarian
  GI50: 13.2 µM
  TGI: 26.1 µM
SN12C renal
  GI50: 1.64 µM
  TGI: 3.43 µM
SNB-19 CNS
  GI50: 6.04 µM
  TGI: 13.2 µM
SNB-75 CNS
  GI50: 4.19 µM
  TGI: 15.7 µM
SR leukemia
  GI50: 1.87 µM
  TGI: 7 µM
SW-620 colon
  GI50: 1.93 µM
  TGI: 4.32 µM
T-47D breast
  GI50: 4.93 µM
  TGI: 18.2 µM
TK-10 renal
  GI50: 8.08 µM
  TGI: 18.8 µM
U251 CNS
  GI50: 2.29 µM
  TGI: 11.8 µM
UACC-257 melanoma
  GI50: 3.22 µM
  TGI: 8.67 µM
UACC-62 melanoma
  GI50: 2.01 µM
  TGI: 6.19 µM
UO-31 renal
  GI50: 3.42 µM
  TGI: 6.79 µM
